From patent US5698411A, “Method for determining activity of enzymes in metabolically active whole cells” (priority 1995, dated 1997)
Numbered stars: 1 amine (or outer) side, 2 acyl side, 3 side chain; on linkers, the order of the positions; unused ones are H or OH. Bridge positions count the residues as written; N and C are the ends. Peptide text beside a SMILES is read from it. I, II: the chains in the order shown. Rhodamine110 = O=C1OC2(c3ccc(N[*:1])cc3Oc3cc(N[*:2])ccc32)c2ccccc21

Legend:
Assay type in all cases: cell-based, human
lymphocytes = experiment: aberrant enzyme activities in febrile children, lymphocytes (Table 7)
monocytes = experiment: aberrant enzyme activities in febrile children, monocytes (Table 7)
granulocytes = experiment: aberrant enzyme activities in febrile children, granulocytes (Table 7)
[1] = P88 Enteritis, listed as Z-Gly/Pro

SMILES	aberrant enzyme activity, LYMPHS (lymphocytes; P89 Viral Stomatitis)	aberrant enzyme activity, LYMPHS (lymphocytes; P92 Adenitis)	aberrant enzyme activity, LYMPHS (lymphocytes; P97 Pyelonephritis)	aberrant enzyme activity, LYMPHS (lymphocytes; P99 Viral Syndrome)	aberrant enzyme activity, LYMPHS (lymphocytes; P102 UTI)	aberrant enzyme activity, LYMPHS (lymphocytes; P103 Viral Syndrome)	aberrant enzyme activity, MONOS (monocytes; P89 Viral Stomatitis)	aberrant enzyme activity, MONOS (monocytes; P92 Adenitis)	aberrant enzyme activity, MONOS (monocytes; P95 Viral Syndrome)	aberrant enzyme activity, MONOS (monocytes; P96 Viral Syndrome)	aberrant enzyme activity, MONOS (monocytes; P97 Pyelonephritis)	aberrant enzyme activity, MONOS (monocytes; P99 Viral Syndrome)	aberrant enzyme activity, MONOS (monocytes; P102 UTI)	aberrant enzyme activity, MONOS (monocytes; P103 Viral Syndrome)	aberrant enzyme activity, GRANS (granulocytes; P89 Viral Stomatitis)	aberrant enzyme activity, GRANS (granulocytes; P92 Adenitis)	aberrant enzyme activity, GRANS (granulocytes; P96 Viral Syndrome)	aberrant enzyme activity, GRANS (granulocytes; P97 Pyelonephritis)	aberrant enzyme activity, GRANS (granulocytes; P99 Viral Syndrome)	aberrant enzyme activity, GRANS (granulocytes; P103 Viral Syndrome)	other results
C[C@H](NC(=O)[C@@H](N)CCCCN)C(=O)Nc1ccc2c(c1)Oc1cc(NC(=O)[C@H](C)NC(=O)[C@@H](N)CCCCN)ccc1C21OC(=O)c2ccccc21 [KA, (Lys-Ala)2 Rho 110]	.smallcircle.	.smallcircle.	.smallcircle.	.smallcircle.	.smallcircle.	.smallcircle.	.smallcircle.	.smallcircle.	.smallcircle.	.smallcircle.	+ (>0.25 Increase over normal range)	.smallcircle.	.smallcircle.	.smallcircle.	.smallcircle.	.smallcircle.	.smallcircle.	.smallcircle.	.smallcircle.	.smallcircle.	aberrant enzyme activity, LYMPHS (lymphocytes; P88 Enteritis): .smallcircle.; aberrant enzyme activity, LYMPHS (lymphocytes; P95 Viral Syndrome): .smallcircle.; aberrant enzyme activity, LYMPHS (lymphocytes; P96 Viral Syndrome): .smallcircle.; aberrant enzyme activity, MONOS (monocytes; P88 Enteritis): .smallcircle.; aberrant enzyme activity, MONOS (monocytes; P101 Fever -- Unknown Origin): + (>0.25 Increase over normal range); aberrant enzyme activity, GRANS (granulocytes; P88 Enteritis): .smallcircle.; aberrant enzyme activity, GRANS (granulocytes; P95 Viral Syndrome): .smallcircle.; aberrant enzyme activity, GRANS (granulocytes; P101 Fever -- Unknown Origin): + (>0.25 Increase over normal range); aberrant enzyme activity, GRANS (granulocytes; P102 UTI): .smallcircle.
CC(C)C[C@H](NC(=O)CNC(=O)[C@@H](N)CC(C)C)C(=O)NCC(=O)Nc1ccc2c(c1)Oc1cc(NC(=O)CNC(=O)[C@H](CC(C)C)NC(=O)CNC(=O)[C@@H](N)CC(C)C)ccc1C21OC(=O)c2ccccc21 [LGLG, (H-L-Leu--Gly--Leu--Gly)2 Rho 110 .2TFA] (I: H-LGLG / II: H-LGLG; linker I:C-II:C via Rhodamine110)	–	.smallcircle.	.smallcircle.	–	–	.smallcircle.	–	.smallcircle.	–	–	.smallcircle.	–	–	.smallcircle.	–	.smallcircle.	–	.smallcircle.	–	.smallcircle.	–
CC(C)C[C@H](NC(=O)[C@@H](N)CC(C)C)C(=O)N[C@@H](CCCNC(=N)N)C(=O)Nc1ccc2c(c1)Oc1cc(NC(=O)[C@H](CCCNC(=N)N)NC(=O)[C@H](CC(C)C)NC(=O)[C@@H](N)CC(C)C)ccc1C21OC(=O)c2ccccc21 (some centres unmarked) [LLR, (H-L Leu--Leu--Arg)2 Rho 110 .4TFA]	–	.smallcircle.	.smallcircle.	–	–	.smallcircle.	–	.smallcircle.	–	–	.smallcircle.	–	–	–	–	.smallcircle.	–	.smallcircle.	–	.smallcircle.	–
N[C@@H](CO)C(=O)Nc1ccc2c(c1)Oc1cc(NC(=O)[C@@H](N)CO)ccc1C21OC(=O)c2ccccc21 [SER, (H-L-Ser)2 Rho 110 .2TFA]	–	.smallcircle.	.smallcircle.	–	–	.smallcircle.	–	.smallcircle.	–	–	.smallcircle.	–	–	–	–	–	–	.smallcircle.	–	.smallcircle.	–
C[C@H](NC(=O)OCc1ccccc1)C(=O)N[C@@H](C)C(=O)Nc1ccc2c(c1)Oc1cc(NC(=O)[C@H](C)NC(=O)[C@H](C)NC(=O)OCc3ccccc3)ccc1C21OC(=O)c2ccccc21 [Z-AA, (Z-Ala--Ala)2 Rho 110]	–	–	–	.smallcircle.	.smallcircle.	–	–	–	–	.smallcircle.	.smallcircle.	.smallcircle.	.smallcircle.	.smallcircle.	–	–	.smallcircle.	.smallcircle.	.smallcircle.	.smallcircle.	aberrant enzyme activity, GRANS (granulocytes; P102 UTI): .smallcircle.
C[C@H](NC(=O)OCc1ccccc1)C(=O)NCC(=O)Nc1ccc2c(c1)Oc1cc(NC(=O)CNC(=O)[C@H](C)NC(=O)OCc3ccccc3)ccc1C21OC(=O)c2ccccc21 [Z-AG, (Z-Ala--Gly)2 Rho 110]	–	–	–	.smallcircle.	.smallcircle.	.smallcircle.	.smallcircle.	–	.smallcircle.	.smallcircle.	.smallcircle.	.smallcircle.	.smallcircle.	.smallcircle.	.smallcircle.	.smallcircle.	.smallcircle.	.smallcircle.	.smallcircle.	.smallcircle.	aberrant enzyme activity, GRANS (granulocytes; P95 Viral Syndrome): .smallcircle.; aberrant enzyme activity, GRANS (granulocytes; P102 UTI): .smallcircle.
O=C(NCC(=O)N1CCC[C@H]1C(=O)Nc1ccc2c(c1)Oc1cc(NC(=O)[C@@H]3CCCN3C(=O)CNC(=O)OCc3ccccc3)ccc1C21OC(=O)c2ccccc21)OCc1ccccc1 [Z-GP, (carbobenzyloxycarbonyl-Gly-Pro)2 Rho 110]	- (>0.25 Decrease over normal range)	- (>0.25 Decrease over normal range)	–	–	–	- (>0.25 Decrease over normal range)	.smallcircle.	- (>0.25 Decrease over normal range)	.smallcircle.	.smallcircle.	.smallcircle.	.smallcircle.	.smallcircle.	.smallcircle.	–	- (>0.25 Decrease over normal range)	.smallcircle.	.smallcircle.	.smallcircle.	.smallcircle.	aberrant enzyme activity, LYMPHS (lymphocytes; [1]): .smallcircle.; aberrant enzyme activity, LYMPHS (lymphocytes; P95 Viral Syndrome): - (>0.25 Decrease over normal range); aberrant enzyme activity, LYMPHS (lymphocytes; P96 Viral Syndrome): - (>0.25 Decrease over normal range); aberrant enzyme activity, LYMPHS (lymphocytes; P97 Pyelonephritis, listed as Z-Gly/Pro): .smallcircle.; aberrant enzyme activity, LYMPHS (lymphocytes; P101 Fever -- Unknown Origin): - (>0.25 Decrease over normal range); aberrant enzyme activity, MONOS (monocytes; [1]): .smallcircle.; aberrant enzyme activity, MONOS (monocytes; P101 Fever -- Unknown Origin): - (>0.25 Decrease over normal range); aberrant enzyme activity, GRANS (granulocytes; [1]): .smallcircle.; aberrant enzyme activity, GRANS (granulocytes; P95 Viral Syndrome): - (>0.25 Decrease over normal range)
C[C@@H](O)[C@H](NC(=O)OCc1ccccc1)C(=O)N1CCC[C@H]1C(=O)Nc1ccc2c(c1)Oc1cc(NC(=O)[C@@H]3CCCN3C(=O)[C@@H](NC(=O)OCc3ccccc3)[C@@H](C)O)ccc1C21OC(=O)c2ccccc21 [Z-TP6.5, (carbobenzyloxycarbonyl-Thr-Pro)2 Rho 110 (pH 6.5)]	- (>0.25 Decrease over normal range)	- (>0.25 Decrease over normal range)	.smallcircle.	–	–	.smallcircle.	- (>0.25 Decrease over normal range)	- (>0.25 Decrease over normal range)	–	–	.smallcircle.	–	–	.smallcircle.	- (>0.25 Decrease over normal range)	- (>0.25 Decrease over normal range)	–	–	–	.smallcircle.	aberrant enzyme activity, LYMPHS (lymphocytes; P88 Enteritis): - (>0.25 Decrease over normal range); aberrant enzyme activity, MONOS (monocytes; P88 Enteritis): - (>0.25 Decrease over normal range); aberrant enzyme activity, GRANS (granulocytes; P88 Enteritis): - (>0.25 Decrease over normal range)
